Some test systems named below: A549 NSCLC; DU-145 prostate; MDA-MB-435; NCI-H522 lung; SK-MEL-28 melanoma; SK-OV-3 ovarian; SNB-19 CNS; SNB-75 CNS; U251 CNS; UACC-257 melanoma; UACC-62 melanoma.
Holding throughout (assay): inhibition of tumour cell growth, NCI panel, 48 h

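In this assay, cells in 96-well plates receive the compound at five concentrations for 48 hours. Endpoints are linearly interpolated between the surrounding concentrations. GI50 marks 50% less growth. At the TGI there is no net growth.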

For the compound `c1ccc(-c2nn(-c3ccccc3)[n+](-c3ccccc3)n2)cc1`, the TGI with A549 NSCLC is over 100 µM; in the test with DU-145 prostate, over 100 µM; in the test with MDA-MB-435, 23.5 µM; in the test on NCI-H522 lung, over 86.3 µM; with SK-MEL-28 melanoma it was over 100 µM; with SK-OV-3 ovarian, over 100 µM. In addition, the TGI in the test with SNB-19 CNS was over 100 µM; in the test with SNB-75 CNS it was over 100 µM; with U251 CNS it was over 100 µM; in the test with UACC-257 melanoma, 11.7 µM; with UACC-62 melanoma, 40.9 µM.
Turning to `CCC(C)C(=O)c1c(O)c(C/C=C(\C)CCC=C(C)C)c(O)c2c(C(O)CC)cc(=O)oc12` (centres undefined), the TGI in the test with A549 NSCLC came to 11.4 µM; in the test with NCI-H522 lung, 5.73 µM; in the test on SK-MEL-28 melanoma, 5.57 µM; with SK-OV-3 ovarian, 10.8 µM; in the test with SNB-19 CNS, 16.2 µM; in the test with SNB-75 CNS it was 5.84 µM. For the same compound, the TGI in the test on U251 CNS is 9.67 µM; with UACC-257 melanoma, 6.84 µM; with UACC-62 melanoma, 5.15 µM.
With `CC[n+]1c(/C=C/c2ccc(N(CCCl)CCCl)cc2)ccc2cc(NC(=O)/C=C/c3ccccc3)ccc21`, the TGI in the test on A549 NSCLC was 6.09 µM; in the test on DU-145 prostate, 1.64 µM; in the test with MDA-MB-435, 1.07 µM; with NCI-H522 lung, 1.17 µM; in the test on SK-MEL-28 melanoma, 2.03 µM; in the test with SK-OV-3 ovarian it was 2.81 µM. The TGI in the test with SNB-19 CNS came to 1.67 µM; in the test with SNB-75 CNS, 1.05 µM; with U251 CNS, 0.619 µM; in the test with UACC-257 melanoma, 1.13 µM; in the test on UACC-62 melanoma it was 2.28 µM.
`Cn1c(-c2ccc(/C=N\N3CCN(/N=C/c4ccc(-c5c[n+]6ccccc6n5C)cc4)CC3)cc2)c[n+]2ccccc12`: the TGI in the test on A549 NSCLC, in the test with DU-145 prostate, in the test with MDA-MB-435, in the test on NCI-H522 lung, with SK-OV-3 ovarian and in the test with SNB-19 CNS was over 100 µM in each case. Further, the TGI in the test with SNB-75 CNS, with U251 CNS, in the test with UACC-257 melanoma and with UACC-62 melanoma was over 100 µM throughout.
With `COc1ccc(CC(C)N)cc1` (centres undefined), the TGI with A549 NSCLC, in the test on NCI-H522 lung, with SK-MEL-28 melanoma, in the test with SK-OV-3 ovarian, in the test on SNB-19 CNS and in the test on SNB-75 CNS was over 100 µM in each case. Further, the TGI in the test with U251 CNS, with UACC-257 melanoma and with UACC-62 melanoma was over 100 µM throughout.
Turning to `CC1(C)N=C(N)N=C(N)N1c1cccc(OCCOc2ccc([N+](=O)[O-])cc2)c1`, the TGI in the test on A549 NSCLC, in the test on DU-145 prostate, in the test with MDA-MB-435, in the test with NCI-H522 lung, in the test with SK-MEL-28 melanoma and in the test with SK-OV-3 ovarian was over 100 µM in each case. For the same compound, the TGI in the test with SNB-19 CNS, with U251 CNS and in the test with UACC-257 melanoma was over 100 µM in each case.
For the compound `COc1cc(C2c3cc4c(cc3[C@@H](Nc3cccc(C(C)=O)c3)C3COC(=O)[C@H]23)OCO4)cc(OC)c1O` (some centres undefined), the TGI in the test with A549 NSCLC came out at 1.99 µM; with NCI-H522 lung it was 5.77 µM; in the test on SK-MEL-28 melanoma, 50.6 µM; in the test with SK-OV-3 ovarian, 5.28 µM; with SNB-19 CNS it was 4.79 µM; with U251 CNS, 9.97 µM. Also, the values for the TGI in the test on UACC-257 melanoma and in the test with UACC-62 melanoma were 8.57 µM and 4.67 µM, respectively.
On to `O=[N+]([O-])c1cn[n+]([O-])c2ccccc12`, for which the TGI worked out at 30.1 µM in the test with A549 NSCLC; 3.79 µM with DU-145 prostate; 27.8 µM in the test with MDA-MB-435; 26.1 µM in the test on SK-MEL-28 melanoma; 26.3 µM in the test on SK-OV-3 ovarian; 25.2 µM in the test on SNB-19 CNS. For the same compound, the TGI in the test on U251 CNS is 15 µM; in the test on UACC-257 melanoma, 26.2 µM.
On to `Brc1ccccc1-c1ncc(-c2ccccc2)o1`, for which the TGI with A549 NSCLC is over 100 µM; with DU-145 prostate, over 100 µM; in the test with MDA-MB-435 it was 60.4 µM; in the test with NCI-H522 lung, 49.9 µM; with SK-MEL-28 melanoma it was over 100 µM; with SK-OV-3 ovarian, over 100 µM. Further, the TGI in the test with SNB-19 CNS is over 100 µM; with SNB-75 CNS it was 59.7 µM; in the test with U251 CNS it was 44.2 µM; with UACC-257 melanoma, over 100 µM; in the test with UACC-62 melanoma, over 100 µM.
Take `COc1ccc(NC(=O)/C(CC2=Nc3ccc([N+](=O)[O-])cc3NC2O)=N\NC(=O)C[N+](C)(C)C)c(OC)c1` (centres undefined): the TGI with A549 NSCLC, in the test on DU-145 prostate, with MDA-MB-435, with NCI-H522 lung, in the test on SK-MEL-28 melanoma and in the test on SK-OV-3 ovarian was over 100 µM in each case. The TGI with SNB-19 CNS, with SNB-75 CNS, in the test on U251 CNS, in the test with UACC-257 melanoma and in the test on UACC-62 melanoma was over 100 µM throughout.
As to `COc1ccc(-c2cc(N3CCN(c4ccccc4)CC3)c(C#N)c(=O)o2)cc1`, the TGI in the test with A549 NSCLC was over 100 µM; in the test with SK-MEL-28 melanoma, 77.6 µM; in the test with SNB-19 CNS, 49.8 µM; in the test with SNB-75 CNS, 31.7 µM; in the test with U251 CNS it was over 100 µM; with UACC-257 melanoma, over 100 µM.
Take `Cc1ccc(S(N)(=O)=O)cc1`: the TGI in the test with A549 NSCLC, with DU-145 prostate, in the test on MDA-MB-435, with NCI-H522 lung, in the test on SK-OV-3 ovarian and in the test with SNB-19 CNS was over 1000 µM in each case. In addition, the TGI with U251 CNS, in the test with UACC-257 melanoma and in the test on UACC-62 melanoma was over 1000 µM throughout.
For `CN(C)c1ccc(N=Nc2ccccn2)cc1`, the TGI in the test with A549 NSCLC, in the test with DU-145 prostate, with MDA-MB-435, in the test with NCI-H522 lung, in the test with SK-MEL-28 melanoma and with SK-OV-3 ovarian was over 100 µM each time. Further, the TGI is over 100 µM in the test on SNB-19 CNS; over 100 µM with SNB-75 CNS; 33 µM in the test with U251 CNS; 25.7 µM in the test with UACC-257 melanoma; over 100 µM in the test with UACC-62 melanoma.
As for `N#Cc1c(NC(=S)NC(=O)c2ccccc2)nc2c(c1-c1ccccc1)CCCC2`, the TGI with A549 NSCLC is over 100 µM; in the test on DU-145 prostate, over 100 µM; in the test with MDA-MB-435, over 100 µM; with SK-MEL-28 melanoma, over 100 µM; with SK-OV-3 ovarian, 86.3 µM; in the test with SNB-19 CNS it was over 100 µM. Moreover, the TGI with SNB-75 CNS is 41.5 µM; with U251 CNS, over 100 µM; with UACC-257 melanoma it was over 100 µM; with UACC-62 melanoma, over 100 µM.
With `NCc1ccccc1C1CSCSC1`, the TGI in the test with A549 NSCLC, with NCI-H522 lung, in the test with SK-MEL-28 melanoma, in the test on SK-OV-3 ovarian, with SNB-75 CNS and in the test with U251 CNS was over 100 µM each time. The TGI in the test on UACC-257 melanoma and with UACC-62 melanoma was over 100 µM throughout.
`CC(C)(Br)C1(O)CCCN1C(=O)c1ccccc1` (centres undefined): the TGI in the test on A549 NSCLC, in the test on NCI-H522 lung, with SK-MEL-28 melanoma, with SK-OV-3 ovarian, in the test with SNB-19 CNS and in the test with SNB-75 CNS was over 100 µM each time. Moreover, the TGI in the test with U251 CNS, with UACC-257 melanoma and with UACC-62 melanoma was over 100 µM throughout.
As to `C=C1C(=O)OC2C1CC(O)/C(C)=C\CCC1(C)OC21` (centres undefined), the TGI in the test on A549 NSCLC is over 100 µM; with DU-145 prostate it was over 100 µM; in the test on MDA-MB-435, 89.6 µM; in the test with NCI-H522 lung it was 33 µM; in the test on SK-MEL-28 melanoma it was 91.1 µM; in the test on SK-OV-3 ovarian, over 100 µM. Also, the TGI was over 100 µM with SNB-19 CNS; over 100 µM with SNB-75 CNS; 54.8 µM in the test on U251 CNS; over 100 µM in the test on UACC-257 melanoma; 61.1 µM in the test with UACC-62 melanoma.
Turning to `C#CC[C@@H]1C[C@]2(C)[C@H]3CC=C4[C@H]5CC(C)(C)CC[C@]5(C(=O)NCCCCN)CC[C@@]4(C)[C@]3(C)CC[C@H]2C(C)(C)[C@H]1OC(C)=O`, the GI50 is 1.66 µM with A549 NSCLC; 1.7 µM in the test with DU-145 prostate; 1.69 µM in the test on MDA-MB-435; 1.74 µM in the test with SK-MEL-28 melanoma; 1.72 µM in the test on SK-OV-3 ovarian; 1.38 µM with SNB-75 CNS. Moreover, the GI50 in the test with U251 CNS is 1.69 µM; in the test with UACC-257 melanoma, 1.87 µM; in the test on UACC-62 melanoma, 1.86 µM. In addition, the TGI worked out at 3.27 µM with A549 NSCLC; 3.15 µM with DU-145 prostate; 3.1 µM in the test with MDA-MB-435; 3.17 µM in the test with SK-MEL-28 melanoma; 3.18 µM in the test with SK-OV-3 ovarian; 2.69 µM with SNB-75 CNS. Moreover, the results for the TGI in the test with U251 CNS, with UACC-257 melanoma and in the test on UACC-62 melanoma were 3.21 µM, 3.61 µM and 3.34 µM, respectively.
Consider `NCc1ccc(C(=O)O)cc1`, for which the TGI with A549 NSCLC, in the test on DU-145 prostate, with MDA-MB-435, in the test on NCI-H522 lung, in the test with SK-MEL-28 melanoma and in the test on SNB-19 CNS was over 100 µM each time. The TGI in the test with U251 CNS, with UACC-257 melanoma and in the test with UACC-62 melanoma was over 100 µM each time.
For the compound `CCO/N=[N+](\[O-])N(CC)CC`, the TGI in the test on A549 NSCLC, in the test with NCI-H522 lung, with SK-MEL-28 melanoma, with SK-OV-3 ovarian, with SNB-19 CNS and with UACC-257 melanoma was over 100 µM throughout. For the same compound, the TGI in the test with UACC-62 melanoma is over 100 µM.
In the case of `COc1cc[n+](C)cc1`, the TGI with A549 NSCLC, with NCI-H522 lung, in the test on SK-MEL-28 melanoma, in the test on SK-OV-3 ovarian, with SNB-19 CNS and with SNB-75 CNS was over 100 µM each time. Besides, the TGI in the test with U251 CNS, in the test on UACC-257 melanoma and in the test on UACC-62 melanoma was over 100 µM throughout.

Values taken from PubChem BioAssay (NCI).
